{"source": "paper PMC8016166", "about": "“Identification of a Potent and Selective 5-HT1A Receptor Agonist with In Vitro and In Vivo Antinociceptive Activity” (ACS Chemical Neuroscience, 2020)", "key": {"5-HT1AR": {"target": "5-HT1AR", "set-up": "method as in PMID 30043643", "details": "previous work; cited from earlier work"}, "Male Swiss CB1 mice": {"system": "Male Swiss CB1 mice", "assay": "Formalin test", "type": "in vivo, mouse", "protocol": "Male Swiss CB1 mice (Envigo, S. Pietro al Natisone (UD)) weighing 25–30 g were used. The animals were kept at a constant room temperature (25 ± 1 °C) under a 12:12 h light and dark cycle, with free access to food and water. Each mouse was used for only one experiment. […] All the tests were performed blind to treatment.\nThe formalin (5%, 10 μL; Sigma-Aldrich) was injected subcutaneously into the plantar side of the right hind paw.[68] After injection, the mice were immediately placed in a plexiglas box: the total time (in seconds) spent on licking or biting the injected hind paw was recorded every 5 min at selected intervals, 0–10 (phase I) and 10–60 (phase II) min, in the different experimental groups, as an indicator of nociceptive behavior. […] A mean response was then calculated for each phase. […] A vehicle solution containing 10% DMSO was given as a control. Morphine was used as positive control. The test compound and vehicle were […] (i.p.) administered (5 mL/kg) 15 min before the formalin. […] The data are expressed as mean values (SEM). Analyses of variance (two-way repeated measures ANOVA followed by post hoc Bonferroni test) were performed to assess significance using the Instat 3.0 software (GraphPad Software, San Diego, CA). p < 0.05 was considered significant."}, "MDCK-MDR1 monolayers": {"system": "MDCK-MDR1 monolayers", "set-up": "method as in PMID 30043643", "details": "cited from earlier work"}, "hERG": {"target": "T1, hERG (Homo sapiens, UniProt Q12809)", "T1 construct": "host or cells: CHO (hERG-CHO)", "T1 sequence (Q12809 whole entry)": "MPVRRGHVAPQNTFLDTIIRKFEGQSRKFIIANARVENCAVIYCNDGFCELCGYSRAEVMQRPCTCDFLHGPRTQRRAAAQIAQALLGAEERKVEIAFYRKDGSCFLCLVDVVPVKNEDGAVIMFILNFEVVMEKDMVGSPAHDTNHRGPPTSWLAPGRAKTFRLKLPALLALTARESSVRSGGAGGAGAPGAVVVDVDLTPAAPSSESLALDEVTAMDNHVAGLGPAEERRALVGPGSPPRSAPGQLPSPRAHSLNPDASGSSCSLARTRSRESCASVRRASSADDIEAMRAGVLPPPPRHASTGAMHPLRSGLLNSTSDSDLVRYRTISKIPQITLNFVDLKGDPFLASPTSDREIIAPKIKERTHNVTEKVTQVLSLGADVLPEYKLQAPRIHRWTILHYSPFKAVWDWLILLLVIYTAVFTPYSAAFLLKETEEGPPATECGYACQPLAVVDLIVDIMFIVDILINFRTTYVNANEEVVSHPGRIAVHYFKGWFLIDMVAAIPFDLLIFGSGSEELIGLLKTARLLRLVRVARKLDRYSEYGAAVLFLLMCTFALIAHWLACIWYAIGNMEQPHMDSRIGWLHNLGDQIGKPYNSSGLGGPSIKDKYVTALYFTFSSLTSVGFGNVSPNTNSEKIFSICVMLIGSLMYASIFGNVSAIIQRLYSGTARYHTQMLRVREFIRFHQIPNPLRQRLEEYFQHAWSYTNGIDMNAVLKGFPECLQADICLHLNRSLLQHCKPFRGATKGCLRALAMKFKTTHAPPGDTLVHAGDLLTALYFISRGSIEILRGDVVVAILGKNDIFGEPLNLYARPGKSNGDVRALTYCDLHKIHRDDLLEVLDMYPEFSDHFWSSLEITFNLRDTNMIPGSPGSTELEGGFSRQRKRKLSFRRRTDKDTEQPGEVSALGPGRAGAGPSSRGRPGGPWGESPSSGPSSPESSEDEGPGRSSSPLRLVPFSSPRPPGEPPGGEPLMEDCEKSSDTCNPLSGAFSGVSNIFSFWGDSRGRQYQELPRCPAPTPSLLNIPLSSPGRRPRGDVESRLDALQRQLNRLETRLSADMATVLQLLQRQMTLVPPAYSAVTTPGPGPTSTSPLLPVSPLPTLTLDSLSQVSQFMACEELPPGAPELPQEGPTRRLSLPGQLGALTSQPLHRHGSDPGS", "assay": "CiPA hERG QPatch assay (hERG-CHO automated patch-clamp)", "type": "cell-based", "details": "human, CHO cells expressing hERG (hERG-CHO), read-out: % inhibition of tail current in hERG-CHO", "source_text": "(§1) After whole cell configuration is achieved, the cell is held at −80 mV. A 500 ms pulse to −40 mV is delivered to measure the leaking current, which is subtracted from the tail current online. Then, the cell is depolarized to +40 mV for 500 ms and then to −80 mV over a 100 ms ramp to elicit the hERG tail current. This paradigm is delivered once every 8 s to monitor the current amplitude.\n(§2) The parameters measured were the maximum tail current evoked on stepping to 40 mV and ramping back to −80 mV from the test pulse. All data were filtered for seal quality, seal drop, and current amplitude. The peak current amplitude was calculated before and after compound addition, and the amount of block was assessed by dividing the Test compound current amplitude by the Control current amplitude. Control is the mean hERG current amplitude collected 15 s at the end of the control; Test Compound is the mean hERG current amplitude collected in the presence of test compound at each concentration."}, "[1]": {"target": "T2, human voltage gated potassium ion channel hERG (Homo sapiens, UniProt Q12809)", "T2 construct": "host or cells: CHO (hERG-CHO)", "T2 sequence (Q12809 whole entry)": "as above", "assay": "CiPA hERG QPatch assay (hERG-CHO automated patch-clamp)", "type": "cell-based", "details": "0.1 and 1 μM, QPatch", "source_text": "as §1, §2"}}}
{"smiles": "c1ccc(C2(c3ccccc3)OCC(CNCCOc3ccccc3-c3ccncc3)O2)cc1", "note": "(racemic) [rac-1, N-[(2,2-diphenyl-1,3-dioxolan-4-yl)methyl]-2-[2-(pyridin-4-yl)phenoxy]ethan-1-ammonium hydrogenoxalate]", "values": [{"measurement": "5-HT1AR affinity pKi", "setting": "5-HT1AR", "value": 9.2}, {"measurement": "analgesic effect in first and second phases of the formalin test", "setting": "Male Swiss CB1 mice; 10 mg/kg i.p., formalin 5% 10 μL intraplantar", "value": "significant analgesic effects"}, {"measurement": "analgesic effect after pretreatment with WAY-100635", "setting": "Male Swiss CB1 mice; 1 10 mg/kg i.p., WAY-100635 3 mg/kg i.p. 30 min before, second phase", "value": "prevented its analgesic effect"}, {"measurement": "efflux ratio", "setting": "MDCK-MDR1 monolayers; MDCK-MDR1 monolayers", "value": "low"}, {"measurement": "permeation of MDCK-MDR1 monolayers mimicking the BBB", "setting": "MDCK-MDR1 monolayers", "value": "permeate, by passive diffusion"}]}
{"smiles": "Cn1cncc1-c1ccccc1OCCNCC1COC(c2ccccc2)(c2ccccc2)O1", "note": "(racemic) [rac-2, N-((2,2-diphenyl-1,3-dioxolan-4-yl)methyl)-2-(2-(1-methyl-1H-imidazol-5-yl)phenoxy)ethan-1-ammonium hydrogenoxalate]", "values": [{"measurement": "5-HT1AR affinity pKi", "setting": "5-HT1AR", "value": 8.98}]}
{"smiles": "c1ccc(C2(c3ccccc3)OC[C@H](CNCCOc3ccccc3-c3ccncc3)O2)cc1", "note": "[(S)-1, N-[(2,2-Diphenyl-1,3-dioxolan-4-yl)methyl]-2-[2-(pyridin-4-yl)phenoxy]ethan-1-ammonium hydrogenoxalate]", "values": [{"measurement": "inhibition at 0.1 µM", "setting": "hERG; 0.1 μM", "value": -3.35, "unit": "%"}, {"measurement": "inhibition at 1 µM", "setting": "hERG; 1 μM", "value": 5.61, "unit": "%"}, {"measurement": "inhibition at 10 µM", "setting": "hERG; 10 μM", "value": 66.7, "unit": "%"}, {"measurement": "hERG inhibition", "setting": "[1]", "value": "does not inhibit hERG"}]}
